Results from patent US11331369B2, “Endoparasitic depsipeptides” (Zoetis Services LLC, priority 2017, dated 2022).

Experiments:
[1] = system: third stage larvae of Haemonchus contortus; assay: Haemonchus contortus L3 (HcL3) Assay; format: cell-based; settings: 96 h, read-out: HcL3 Minimum Effective Dose (MED)
[2] = system: microfilariae of Dirofilaria immitis; assay: Dirofilaria immitis, Microfilaria (DiMF) In vitro Assay; format: cell-based; settings: 72 h, read-out: DiMF Minimum Effective Dose (MED), approximately 72 hours incubation, microfilariae assessed for survival or paralysis

Row | Compound | minimal effective concentration [1] | minimal effective concentration [2]
1 | CC(C)C[C@H]1C(=O)O[C@H](Cc2ccc(Cn3nc(C4CC4)cc3C3CC3)cc2)C(=O)N(C)[C@@H](CC(C)C)C(=O)O[C@H](C)C(=O)N(C)[C@@H](CC(C)C)C(=O)O[C@H](Cc2ccc(Cn3nc(CO)cc3C3CC3)cc2)C(=O)N(C)[C@@H](CC(C)C)C(=O)O[C@H](C)C(=O)N1C [Example 1a-14, (3S,6R,9S,12R,15S,18R,21S,24R)-6-(4-((5-cyclopropyl-3-(hydroxymethyl)-1H-pyrazol-1-yl)methyl)benzyl)-18-(4-((3,5-dicyclopropyl-1H-pyrazol-1-yl)methyl)benzyl)-3,9,15,21-tetraisobutyl-4,10,12,16,22,24-hexamethyl-1,7,13,19-tetraoxa-4,10,16,22-tetraazacyclotetracosan-2,5,8,11,14,17,20,23-octaone] | 1 to 10 µM | 0.01 to 0.1 µM
2 | CC(C)C[C@H]1C(=O)O[C@H](Cc2ccc(Cn3cc(C(C)(C)C)cn3)cc2)C(=O)N(C)[C@@H](CC(C)C)C(=O)O[C@H](C)C(=O)N(C)[C@@H](CC(C)C)C(=O)O[C@H](Cc2ccc(Cn3cccn3)cc2)C(=O)N(C)[C@@H](CC(C)C)C(=O)O[C@H](C)C(=O)N1C [Example 1a-17, (3S,6R,9S,12R,15S,18R,21S,24R)-6-(4-((1H-pyrazol-1-yl)methyl)benzyl)-18-(4-((4-(tert-butyl)-1H-pyrazol-1-yl)methyl)benzyl)-3,9,15,21-tetraisobutyl-4,10,12,16,22,24-hexamethyl-1,7,13,19-tetraoxa-4,10,16,22-tetraazacyclotetracosan-2,5,8,11,14,17,20,23-octaone] | 1 to 10 µM | 0.001 to 0.01 µM
3 | CC(C)C[C@H]1C(=O)O[C@H](Cc2ccc(Cn3nccc3OC(C)C)cc2)C(=O)N(C)[C@@H](CC(C)C)C(=O)O[C@H](C)C(=O)N(C)[C@@H](CC(C)C)C(=O)O[C@H](Cc2ccc(Cn3ccc(OC(C)C)n3)cc2)C(=O)N(C)[C@@H](CC(C)C)C(=O)O[C@H](C)C(=O)N1C [Example 1a-35, (3S,6R,9S,12R,15S,18R,21S,24R)-3,9,15,21-tetraisobutyl-6-(4-((3-isopropoxy-1H-pyrazol-1-yl)methyl)benzyl)-18-(4-((5-isopropoxy-1H-pyrazol-1-yl)methyl)benzyl)-4,10,12,16,22,24-hexamethyl-1,7,13,19-tetraoxa-4,10,16,22-tetraazacyclotetracosan-2,5,8,11,14,17,20,23-octaone] | 1 to 10 µM | 0.01 to 0.1 µM
4 | Cc1cnn(Cc2ccc(C[C@H]3OC(=O)[C@H](CC(C)C)N(C)C(=O)[C@@H](C)OC(=O)[C@H](CC(C)C)N(C)C(=O)[C@@H](Cc4ccc(Cn5cc(C)cn5)cc4)OC(=O)[C@H](CC(C)C)N(C)C(=O)[C@@H](C)OC(=O)[C@H](CC(C)C)N(C)C3=O)cc2)c1 [Example 1b-24, (3S,6R,9S,12R,15S,18R,21S,24R)-3,9,15,21-tetraisobutyl-4,6,10,16,18,22-hexamethyl-12,24-bis[[4-[(4-methylpyrazol-1-yl)methyl]phenyl]methyl]-1,7,13,19-tetraoxa-4,10,16,22-tetrazacyclotetracosane-2,5,8,11,14,17,20,23-octaone] | 1 to 10 µM | 0.001 to 0.01 µM
5 | Cc1cc(C)n(Cc2ccc(C[C@H]3OC(=O)[C@H](CC(C)C)N(C)C(=O)[C@@H](C)OC(=O)[C@H](CC(C)C)N(C)C(=O)[C@@H](Cc4ccc(Cn5nc(C)cc5C)cc4)OC(=O)[C@H](CC(C)C)N(C)C(=O)[C@@H](C)OC(=O)[C@H](CC(C)C)N(C)C3=O)cc2)n1 [Example 1b-29, (3S,6R,9S,12R,15S,18R,21S,24R)-6,18-bis[[4-[(3,5-dimethylpyrazol-1-yl)methyl]phenyl]methyl]-3,9,15,21-tetraisobutyl-4,10,12,16,22,24-hexamethyl-1,7,13,19-tetraoxa-4,10,16,22-tetrazacyclotetracosane-2,5,8,11,14,17,20,23-octaone] | 1 to 10 µM | 0.001 to 0.01 µM
6 | COc1cnn(Cc2ccc(C[C@H]3OC(=O)[C@H](CC(C)C)N(C)C(=O)[C@@H](C)OC(=O)[C@H](CC(C)C)N(C)C(=O)[C@@H](Cc4ccc(Cn5cc(OC)cn5)cc4)OC(=O)[C@H](CC(C)C)N(C)C(=O)[C@@H](C)OC(=O)[C@H](CC(C)C)N(C)C3=O)cc2)c1 [Example 1b-52, (3S,6R,9S,12R,15S,18R,21S,24R)-3,9,15,21-tetraisobutyl-6,18-bis(4-((4-methoxy-1H-pyrazol-1-yl)methyl)benzyl)-4,10,12,16,22,24-hexamethyl-1,7,13,19-tetraoxa-4,10,16,22-tetraazacyclotetracosan-2,5,8,11,14,17,20,23-octaone] | 1 to 10 µM | 0.001 to 0.01 µM
7 | Cc1ccn(Cc2ccc(C[C@H]3OC(=O)[C@H](CC(C)C)N(C)C(=O)[C@@H](C)OC(=O)[C@H](CC(C)C)N(C)C(=O)[C@@H](Cc4ccc(Cn5ccc(C)n5)cc4)OC(=O)[C@H](CC(C)C)N(C)C(=O)[C@@H](C)OC(=O)[C@H](CC(C)C)N(C)C3=O)cc2)n1 [Example 1b-94, (3S,6R,9S,12R,15S,18R,21S,24R)-3,9,15,21-tetraisobutyl-4,6,10,16,18,22-hexamethyl-12,24-bis(4-((3-methyl-1H-pyrazol-1-yl)methyl)benzyl)-1,7,13,19-tetraoxa-4,10,16,22-tetraazacyclotetracosan-2,5,8,11,14,17,20,23-octaone] | ≤ 1 µM | 0.001 to 0.01 µM
8 | CCc1ccn(Cc2ccc(C[C@H]3OC(=O)[C@H](CC(C)C)N(C)C(=O)[C@@H](C)OC(=O)[C@H](CC(C)C)N(C)C(=O)[C@@H](Cc4ccc(Cn5ccc(CC)n5)cc4)OC(=O)[C@H](CC(C)C)N(C)C(=O)[C@@H](C)OC(=O)[C@H](CC(C)C)N(C)C3=O)cc2)n1 [Example 1b-95, (3S,6R,9S,12R,15S,18R,21S,24R)-6,18-bis(4-((3-ethyl-1H-pyrazol-1-yl)methyl)benzyl)-3,9,15,21-tetraisobutyl-4,10,12,16,22,24-hexamethyl-1,7,13,19-tetraoxa-4,10,16,22-tetraazacyclotetracosan-2,5,8,11,14,17,20,23-octaone] | 1 to 10 µM | 0.001 to 0.01 µM
9 | Cc1nn(Cc2ccc(C[C@H]3OC(=O)[C@H](CC(C)C)N(C)C(=O)[C@@H](C)OC(=O)[C@H](CC(C)C)N(C)C(=O)[C@@H](Cc4ccc(Cn5nc(C)c(F)c5C)cc4)OC(=O)[C@H](CC(C)C)N(C)C(=O)[C@@H](C)OC(=O)[C@H](CC(C)C)N(C)C3=O)cc2)c(C)c1F [Example 1b-110, (3S,6R,9S,12R,15S,18R,21S,24R)-6,18-bis(4-((4-fluoro-3,5-dimethyl-1H-pyrazol-1-yl)methyl)benzyl)-3,9,15,21-tetraisobutyl-4,10,12,16,22,24-hexamethyl-1,7,13,19-tetraoxa-4,10,16,22-tetraazacyclotetracosan-2,5,8,11,14,17,20,23-octaone] | 1 to 10 µM | 0.01 to 0.1 µM
10 | CC(C)C[C@H]1C(=O)O[C@H](Cc2ccc(Cn3nc(C4CC4)c(N)c3C3CC3)cc2)C(=O)N(C)[C@@H](CC(C)C)C(=O)O[C@H](C)C(=O)N(C)[C@@H](CC(C)C)C(=O)O[C@H](Cc2ccc(Cn3nc(C4CC4)c(N)c3C3CC3)cc2)C(=O)N(C)[C@@H](CC(C)C)C(=O)O[C@H](C)C(=O)N1C [Example 1b-145, (3S,6R,9S,12R,15S,18R,21S,24R)-6,18-bis(4-((4-amino-3,5-dicyclopropyl-1H-pyrazol-1-yl)methyl)benzyl)-3,9,15,21-tetraisobutyl-4,10,12,16,22,24-hexamethyl-1,7,13,19-tetraoxa-4,10,16,22-tetraazacyclotetracosan-2,5,8,11,14,17,20,23-octaone] | 1 to 10 µM | 0.001 to 0.01 µM
11 | CC(C)C[C@H]1C(=O)O[C@H](Cc2ccc(Cn3nccc3C3(C)CCOCC3)cc2)C(=O)N(C)[C@@H](CC(C)C)C(=O)O[C@H](C)C(=O)N(C)[C@@H](CC(C)C)C(=O)O[C@H](Cc2ccc(Cn3nccc3C3(C)CCOCC3)cc2)C(=O)N(C)[C@@H](CC(C)C)C(=O)O[C@H](C)C(=O)N1C [Example 1b-213, (3S,6R,9S,12R,15S,18R,21S,24R)-3,9,15,21-tetraisobutyl-4,6,10,16,18,22-hexamethyl-12,24-bis(4-((5-(4-methyltetrahydro-2H-pyran-4-yl)-1H-pyrazol-1-yl)methyl)benzyl)-1,7,13,19-tetraoxa-4,10,16,22-tetraazacyclotetracosan-2,5,8,11,14,17,20,23-octaone] | 1 to 10 µM | 0.001 to 0.01 µM
12 | COC(C)(C)Cc1ccnn1Cc1ccc(C[C@H]2OC(=O)[C@H](CC(C)C)N(C)C(=O)[C@@H](C)OC(=O)[C@H](CC(C)C)N(C)C(=O)[C@@H](Cc3ccc(Cn4nccc4CC(C)(C)OC)cc3)OC(=O)[C@H](CC(C)C)N(C)C(=O)[C@@H](C)OC(=O)[C@H](CC(C)C)N(C)C2=O)cc1 [Example 1b-214, (3S,6R,9S,12R,15S,18R,21S,24R)-3,9,15,21-tetraisobutyl-6,18-bis(4-((5-(2-methoxy-2-methylpropyl)-1H-pyrazol-1-yl)methyl)benzyl)-4,10,12,16,22,24-hexamethyl-1,7,13,19-tetraoxa-4,10,16,22-tetraazacyclotetracosan-2,5,8,11,14,17,20,23-octaone] | 1 to 10 µM | 0.01 to 0.1 µM
13 | Cc1cnn(Cc2ccc(C[C@H]3OC(=O)[C@H](CC(C)C)N(C)C(=O)[C@@H](C)OC(=O)[C@H](CC(C)C)N(C)C(=O)[C@@H](Cc4ccccc4)OC(=O)[C@H](CC(C)C)N(C)C(=O)[C@@H](C)OC(=O)[C@H](CC(C)C)N(C)C3=O)cc2)c1 [Example 2-2, (3S,6R,9S,12R,15S,18R,21S,24R)-6-benzyl-3,9,15,21-tetraisobutyl-4,10,12,16,22,24-hexamethyl-18-[[4-[(4-methylpyrazol-1-yl)methyl]phenyl]methyl]-1,7,13,19-tetraoxa-4,10,16,22-tetrazacyclotetracosane-2,5,8,11,14,17,20,23-octaone] | 1 to 10 µM | 0.001 to 0.01 µM
